Test results published in PubChem BioAssay AID330 (DTP/NCI, 2004).
Several values for one entry are separate records, joined by “and”; a condition that tells them apart may be missing. Identical values can stand only once. Inconclusive results and toxic doses are left out.

Tested on: P388 leukemia ip, CD2F1 mice, survival T/C
Assay: NCI In Vivo Anticancer Drug Screen. Data for tumor model P388 Leukemia (intraperitoneal) in CD2F1 (CDF1) mice
Settings: endpoint: median survival time, higher = longer survival
Procedure, shortened: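 Mice carrying the transplanted tumor received test compound or vehicle. Survival was recorded in each group, and the value is the treated-group measurement divided by that of the vehicle-treated control group.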

[1] = dose: 50.0 mg/kg/injection, schedule: Q01DX005 (ip), vehicle: saline with Tween-80
[2] = dose: 100.0 mg/kg/injection, schedule: Q01DX005 (ip), vehicle: saline with Tween-80
[3] = dose: 200.0 mg/kg/injection, schedule: Q01DX005 (ip), vehicle: saline with Tween-80
[4] = dose: 60.0 mg/kg/injection, schedule: Q01DX005 (ip), vehicle: saline with Tween-80
[5] = dose: 120.0 mg/kg/injection, schedule: Q01DX005 (ip), vehicle: saline with Tween-80
[6] = dose: 240.0 mg/kg/injection, schedule: Q01DX005 (ip), vehicle: saline with Tween-80
[7] = dose: 50.0 mg/kg/injection, schedule: Q01DX009 (ip), vehicle: Klucel (hydroxypropylcellulose) (HPC)
[8] = dose: 100.0 mg/kg/injection, schedule: Q01DX009 (ip), vehicle: Klucel (hydroxypropylcellulose) (HPC)
[9] = dose: 200.0 mg/kg/injection, schedule: Q01DX009 (ip), vehicle: Klucel (hydroxypropylcellulose) (HPC)
[10] = dose: 25.0 mg/kg/injection, schedule: Q01DX009 (ip), vehicle: Klucel (hydroxypropylcellulose) (HPC)
[11] = dose: 50.0 mg/kg/injection, schedule: Q01DX005 (ip), vehicle: saline
[12] = dose: 100.0 mg/kg/injection, schedule: Q01DX005 (ip), vehicle: saline
[13] = dose: 200.0 mg/kg/injection, schedule: Q01DX005 (ip), vehicle: saline
[14] = dose: 100.0 mg/kg/injection, schedule: Q04DX003 (ip), vehicle: saline
[15] = dose: 50.0 mg/kg/injection, schedule: Q01DX009 (ip), vehicle: saline
[16] = dose: 50.0 mg/kg/injection, schedule: Q01DX009 (ip), vehicle: saline with Tween-80
[17] = dose: 100.0 mg/kg/injection, schedule: Q01DX009 (ip), vehicle: saline with Tween-80
[18] = dose: 100.0 mg/kg/injection, schedule: Q01DX009 (ip), vehicle: saline
[19] = dose: 200.0 mg/kg/injection, schedule: Q01DX009 (ip), vehicle: saline
[20] = dose: 200.0 mg/kg/injection, schedule: Q01DX009 (ip), vehicle: saline with Tween-80

C/C=C1\C[C@@H]2C(OC)Nc3cc(O)c(OC)cc3C(=O)N2C1 (stereo not given in full)
T/C (dose: 0.01 mg/kg/injection, schedule: Q04DX003 (ip), vehicle: other): 97 % of control
T/C (dose: 0.03 mg/kg/injection, schedule: Q04DX003 (ip), vehicle: other): 114 % of control
T/C (dose: 0.1 mg/kg/injection, schedule: Q04DX003 (ip), vehicle: other): 123 % of control
T/C (dose: 0.13 mg/kg/injection, schedule: Q04DX003 (ip), vehicle: other): 160 % of control
T/C (dose: 0.25 mg/kg/injection, schedule: Q04DX003 (ip), vehicle: other): 163 % of control
T/C (dose: 0.3 mg/kg/injection, schedule: Q04DX003 (ip), vehicle: other): 161 % of control
T/C (dose: 0.5 mg/kg/injection, schedule: Q04DX003 (ip), vehicle: other): 168 % of control
T/C (dose: 1.0 mg/kg/injection, schedule: Q04DX003 (ip), vehicle: other): 93 % of control
T/C (dose: 1.0 micrograms/kg/injection, schedule: Q01DX009 (ip), vehicle: other): 110 % of control
T/C (dose: 3.0 micrograms/kg/injection, schedule: Q01DX009 (ip), vehicle: other): 102 % of control
T/C (dose: 10.0 micrograms/kg/injection, schedule: Q01DX009 (ip), vehicle: other): 118 % of control
T/C (dose: 100.0 micrograms/kg/injection, schedule: Q01DX009 (ip), vehicle: other): 168 % of control
T/C (dose: 300.0 micrograms/kg/injection, schedule: Q01DX009 (ip), vehicle: other): 200 % of control

CC(=O)OC1SCCn2c1nc1ccccc1c2=O (stereo not given)
T/C [1]: 106 % of control
T/C [2]: 104 % of control
T/C [3]: 99 % of control

Cc1c(Cl)cccc1-n1c(=O)c2[nH]c3ccccc3sc=2c1=O
T/C [4]: 100 % of control
T/C [5]: 92 % of control
T/C [6]: 97 % of control

FC(F)(F)C(OCC1CO1)(c1cccc(C(OCC2CO2)(C(F)(F)F)C(F)(F)F)c1)C(F)(F)F (stereo not given)
T/C [7]: 99 % of control
T/C [8]: 100 % of control
T/C [9]: 100 % of control

Cc1cc(C)c(CC(=O)O)c(C)c1
T/C [10]: 111 % of control
T/C [7]: 106 % of control
T/C [8]: 105 % of control
T/C [9]: 107 % of control

C=CCCCN1C(=O)CCC1=O
T/C [11]: 105 % of control
T/C [12]: 97 % of control
T/C [13]: 100 % of control

NC(=O)c1c(Cl)cccc1Cl
T/C (dose: 12.5 mg/kg/injection, schedule: Q04DX003 (ip), vehicle: saline): 101 % of control
T/C (dose: 25.0 mg/kg/injection, schedule: Q04DX003 (ip), vehicle: saline): 93 % of control
T/C (dose: 50.0 mg/kg/injection, schedule: Q04DX003 (ip), vehicle: saline): 99 % of control
T/C [14]: 101 % of control

Clc1ccc2ccc3ccccc3c2n1
T/C (dose: 12.5 mg/kg/injection, schedule: Q01DX009 (ip), vehicle: saline): 101 % of control
T/C (dose: 25.0 mg/kg/injection, schedule: Q01DX009 (ip), vehicle: saline): 102 % of control
T/C [15]: 101 % of control and 94 % of control

C/C(N=NC(=S)N1CCN(c2ccccc2)CC1)=C1\C=CC=CN1O
T/C [1]: 103 % of control
T/C [2]: 101 % of control
T/C [3]: 103 % of control

COC(=O)CC(=O)C(C)SC (stereo not given)
T/C (dose: 25.0 mg/kg/injection, schedule: Q01DX009 (ip), vehicle: saline with Tween-80): 100 % of control
T/C [16]: 109 % of control
T/C [17]: 97 % of control

CCOc1ccc(C(c2ccc(OCC)cc2)C(C)C)cc1
T/C (dose: 50.0 mg/kg/injection, schedule: Q01DX009 (ip), vehicle: suspension in saline): 108 % of control
T/C (dose: 100.0 mg/kg/injection, schedule: Q01DX009 (ip), vehicle: suspension in saline): 100 % of control
T/C (dose: 200.0 mg/kg/injection, schedule: Q01DX009 (ip), vehicle: suspension in saline): 105 % of control

COC(=O)c1c(C(=O)OC)c(-c2cccc(Cl)c2)n2c1CCC2
T/C (dose: 25.0 mg/kg/injection, schedule: Q01DX005 (ip), vehicle: saline with Tween-80): 98 % of control
T/C [1]: 100 % of control
T/C [2]: 100 % of control and 93 % of control
T/C [3]: 100 % of control

Cc1ccc(C(=O)CC2=NC3NN(c4ccccc4)C(=O)C3=C2CC(=O)c2ccc(C)cc2)cc1 (stereo not given)
T/C (dose: 60.0 mg/kg/injection, schedule: Q01DX005 (ip), vehicle: suspension in saline): 94 % of control
T/C (dose: 120.0 mg/kg/injection, schedule: Q01DX005 (ip), vehicle: suspension in saline): 98 % of control
T/C (dose: 240.0 mg/kg/injection, schedule: Q01DX005 (ip), vehicle: suspension in saline): 102 % of control

Cc1cc(OC(=O)c2c(-c3c(Cl)cccc3Cl)noc2C)n(-c2ccc(NC(=O)c3c(-c4c(Cl)cccc4Cl)noc3C)cc2)n1
T/C [15]: 93 % of control
T/C [18]: 89 % of control
T/C [19]: 88 % of control

O=[N+]([O-])c1cccc(/C=C/C=C/c2cccc(S(=O)(=O)F)c2)c1
T/C [17]: 90 % of control
T/C [20]: 86 % of control
T/C (dose: 400.0 mg/kg/injection, schedule: Q01DX009 (ip), vehicle: saline with Tween-80): 86 % of control

CCOC(=O)C(Cc1ccccc1C(=O)NC)c1ccccc1 (stereo not given)
T/C (dose: 100.0 mg/kg/injection, schedule: Q01DX009 (ip), vehicle: saline sonified): 95 % of control
T/C (dose: 200.0 mg/kg/injection, schedule: Q01DX009 (ip), vehicle: saline sonified): 95 % of control
T/C (dose: 400.0 mg/kg/injection, schedule: Q01DX009 (ip), vehicle: saline sonified): 95 % of control

COC(=O)NN(C(=O)OC)C1CCC2C1c1ccccc1N(C(=O)OC)N2C(=O)OC (stereo not given)
T/C (dose: 60.0 mg/kg/injection, schedule: Q01DX005 (ip), vehicle: Klucel (hydroxypropylcellulose) (HPC)): 108 % of control
T/C (dose: 120.0 mg/kg/injection, schedule: Q01DX005 (ip), vehicle: Klucel (hydroxypropylcellulose) (HPC)): 113 % of control
T/C (dose: 240.0 mg/kg/injection, schedule: Q01DX005 (ip), vehicle: Klucel (hydroxypropylcellulose) (HPC)): 103 % of control

Cc1ccc(NC(=O)Oc2c(C)cc(Cl)cc2C)c([N+](=O)[O-])c1
T/C [16]: 95 % of control
T/C [20]: 95 % of control

Clc1c2ccccc2c(Cl)c2ccccc12
T/C (dose: 100.0 mg/kg/injection, schedule: Q04DX002 (ip), vehicle: saline with Tween-80): 97 % of control
T/C (dose: 200.0 mg/kg/injection, schedule: Q04DX002 (ip), vehicle: saline with Tween-80): 103 % of control
T/C (dose: 400.0 mg/kg/injection, schedule: Q04DX002 (ip), vehicle: saline with Tween-80): 96 % of control

CC(O)C(N)C(=O)O (stereo not given)
T/C [11]: 104 % of control
T/C [15]: 103 % of control
T/C [12]: 100 % of control and 108 % of control
T/C [18]: 105 % of control
T/C [13]: 100 % of control and 103 % of control
T/C [19]: 102 % of control

O=[N+]([O-])c1ccc(Sc2ncnc3nc[nH]c23)c2nonc12
T/C (dose: 0.78 mg/kg/injection, schedule: Q01DX009 (ip), vehicle: Klucel (hydroxypropylcellulose) (HPC)): 105 % of control
T/C (dose: 1.56 mg/kg/injection, schedule: Q01DX009 (ip), vehicle: Klucel (hydroxypropylcellulose) (HPC)): 109 % of control and 86 % of control
T/C (dose: 3.12 mg/kg/injection, schedule: Q01DX009 (ip), vehicle: Klucel (hydroxypropylcellulose) (HPC)): 99 % of control and 104 % of control
T/C (dose: 6.25 mg/kg/injection, schedule: Q01DX009 (ip), vehicle: Klucel (hydroxypropylcellulose) (HPC)): 105 % of control and 98 % of control
T/C (dose: 12.5 mg/kg/injection, schedule: Q01DX009 (ip), vehicle: Klucel (hydroxypropylcellulose) (HPC)): 113 % of control and 116 % of control and 122 % of control
T/C [10]: 112 % of control

CCCNC12CN3CN(CN(C3)C1)C2
T/C [14]: 99 % of control
T/C (dose: 200.0 mg/kg/injection, schedule: Q04DX003 (ip), vehicle: saline): 100 % of control
T/C (dose: 400.0 mg/kg/injection, schedule: Q04DX003 (ip), vehicle: saline): 95 % of control

COc1cc(OC)c(Cc2cc3c(cc2OC)OCO3)c(OC)c1
T/C [4]: 91 % of control
T/C [5]: 87 % of control
T/C [6]: 87 % of control

CC(C)=CCC(/C=N/N=C(N)N)C(C)C (stereo not given)
T/C (dose: 6.25 mg/kg/injection, schedule: Q01DX005 (ip), vehicle: suspension in saline): 96 % of control
T/C (dose: 12.5 mg/kg/injection, schedule: Q01DX005 (ip), vehicle: suspension in saline): 97 % of control
T/C (dose: 25.0 mg/kg/injection, schedule: Q01DX005 (ip), vehicle: suspension in saline): 96 % of control
